The record followed here is US8710091B2, “Imidazolidine-2,4-dione derivatives, and use thereof as a cancer drug” (Ipsen Pharma S.A.S., priority 2009, dated 2014).

For one experiment, the system named is LNCaP cells. Put plainly: Anti-proliferative activity on LNCaP in complete medium (WST-1). The format is cell-based. The settings on record: Homo sapiens, 144 h, 144 h incubation, read-out: IC50 on the LNCaP cells in culture (concentration inhibiting cell proliferation by 50%). The method, then: The anti-proliferative activity of the compounds of the present invention is determined on LNCaP in complete medium by applying the following experimental procedure:
The LNCaP cell type (ATCC, 1740) originating from a prostate carcinoma expressing the androgen receptor, this line is hormone-dependent.
Maintenance of the LNCaP line is carried out in complete culture medium: RPMI, 10% of foetal calf serum, 2 mM glutamine, 100 U/ml penicillin, 0.1 mg/ml of streptomycin and 0.01M HEPES, 1 mM sodium pyruvate, 40% of D-glucose. • Seeding the plates:
The LNCaP line is seeded at 20,000 cells/well in 90 μl of complete medium in 96-well plates coated with poly-D-lysine (Biocoat, Costar). • Treatment of the cells: 24 h after the seeding, the cells are treated with 10 μl/well of compound diluted in the culture medium. Experiments of the effect of doses of the compound are carried out on a scale of 1 nM to 100 µM. The concentrations used are the following: 1 nM/10/30/100/300/1000/3000/10,000/100,000 nM. Testosterone (SIGMA T1500) is used as a reference and tested at the same concentrations. The cells are incubated for 144 h at 37° C., 5% CO2. • Reading: On D6, 10 μL of the “WST-1 cell proliferation” reagent (Roche ref 1644807) is added to each well. After incubation for 2 hours at 37° C., 5% CO2, the absorbance at 450 nm is measured by spectrophotometry (Envision, Perkin Elmer). • Results: The experiments are carried out in duplicate and the best compounds are tested twice. […] 2. Antiproliferative Activity on LNCaP in Medium without Steroids: […]

For a further experiment, the system named is DU145 cells. Put plainly: Antiproliferative activity on DU-145 in complete medium (WST-1). It counts as cell-based. The conditions noted are these: Homo sapiens, 144 h incubation, read-out: IC50 on the DU145 cells in culture (concentration inhibiting cell proliferation by 50%). The protocol: The anti-proliferative activity of the compounds of the present invention is determined on DU-145 in complete medium.
Maintenance of the DU-145 line is carried out in DMEM, 10% of foetal calf serum, 2 mM of glutamine, 100 U/ml of penicillin, 0.1 mg/ml of streptomycin. • Seeding the plates: • The DU145 line is seeded at 400 or 800 cells/well in 90 μl of DMEM complete medium in 96-well plates (TPP). • Treatment of the cells: 24 h after the seeding, the cells are treated with 10 μl/well of compound diluted in the culture medium. Experiments showing the dose-effect of the compound are carried out on a scale of 1 nM to 100 μM. The concentrations used are the following: 1 nM/10/30/100/300/1000/3000/10,000/100,000 nM. The cells are incubated for 144 h at 37° C., 5% CO2. • Reading: On D6, 10 μL, of cell proliferation reagent WST-1 (Roche ref 1644807) is added to each well. After incubation for 2 to 4 hours at 37° C., 5% CO2, the absorbance at 450 nm is measured by spectrophotometry (Envision, Perkin Elmer). • Results: The experiments are carried out in duplicate and the best compounds are tested twice. […] 4. Measurement of the Disappearance of the Androgen Receptor
(Tetrazolium dyes change colour on reduction, which living cells bring about.)

For `CC1(C)C(=O)N(c2ccc([N+](=O)[O-])c(C(F)(F)F)c2)C(=O)N1CCCCCCCCCCC[S+]([O-])CCCC(F)(F)C(F)(F)F` (stereo not drawn) [Example 11, 5,5-dimethyl-3-[4-nitro-3-(trifluoromethyl)phenyl]-1-{11-[(4,4,5,5,5-pentafluoropentyl)sulphinyl]undecyl}imidazolidine-2,4-dione], the values for the IC50 in the experiment on LNCaP cells and with DU145 cells were < 2 µM and > 10 µM, respectively.
On to `CC1(C)C(=O)N(c2ccc(C(N)=O)c(C(F)(F)F)c2)C(=O)N1CCCCCCCCC[S+]([O-])CCCC(F)(F)C(F)(F)F` (stereo not drawn) [Example 22, 4-(4,4-dimethyl-2,5-dioxo-3-{9-[(4,4,5,5,5-pentafluoropentyl)sulphinyl]nonyl}imidazolidin-1-yl)-2-(trifluoromethyl)benzamide], for which the values for the IC50 in the experiment on LNCaP cells and in the experiment with DU145 cells were < 2 µM and > 10 µM, respectively.
Consider `CC1(C)C(=O)N(c2ccc([N+](=O)[O-])c(C(F)(F)F)c2)C(=O)N1CCCCCCCCCS(=O)(=O)CCCC(F)(F)C(F)(F)F` [Example 3, 5,5-dimethyl-3-[4-nitro-3-(trifluoromethyl)phenyl]-1-{9-[(4,4,5,5,5-pentafluoropentyl)sulphonyl]nonyl}imidazolidine-2,4-dione], for which the IC50 with LNCaP cells was < 2 µM; in the experiment with DU145 cells, > 10 µM.
`Cc1cc(N2C(=O)N(CCCCCCCCCS(=O)(=O)CCCC(F)(F)C(F)(F)F)C(C)(C)C2=O)ccc1NS(N)(=O)=O` [Example 32, N-[4-(4,4-dimethyl-2,5-dioxo-3-{9-[(4,4,5,5,5-pentafluoropentyl)sulphonyl]nonyl}imidazolidin-1-yl)-2-methylphenyl]sulphamide]: the IC50 is < 2 µM in the experiment with LNCaP cells and > 10 µM in the experiment on DU145 cells.
In the case of `CC(=O)N(C)c1ccc(N2C(=O)N(CCCCCCCCC[S+]([O-])CCCC(F)(F)C(F)(F)F)C(C)(C)C2=O)cc1C(F)(F)F` (stereo not drawn) [Example 40, N-[4-(4,4-dimethyl-2,5-dioxo-3-{9-[(4,4,5,5,5-pentafluoropentyl)sulphinyl]nonyl}imidazolidin-1-yl)-2-(trifluoromethyl)phenyl]-N-methylacetamide], the IC50 in the experiment on LNCaP cells is < 2 µM; in the experiment with DU145 cells, > 10 µM.
As for `CC1(C)C(=O)N(c2ccc([N+](=O)[O-])c(C(F)(F)F)c2)C(=O)N1CCCCCCCCCSCCCC(F)(F)C(F)(F)F` [Example 1, 5,5-dimethyl-3-[4-nitro-3-(trifluoromethyl)phenyl]-1-{9-[(4,4,5,5,5-pentafluoropentyl)thio]nonyl}imidazolidine-2,4-dione], the IC50 in the experiment on LNCaP cells was < 2 µM; in the experiment with DU145 cells, > 10 µM.
Consider `CC1(C)C(=O)N(c2ccc([N+](=O)[O-])c(C(F)(F)F)c2)C(=O)N1CCCCCCCC[S+]([O-])CCCC(F)(F)C(F)(F)F` (stereo not drawn) [Example 7, 5,5-dimethyl-3-[4-nitro-3-(trifluoromethyl)phenyl]-1-{8-[(4,4,5,5,5-pentafluoropentyl)sulphinyl]octyl}imidazolidine-2,4-dione], for which the IC50 with LNCaP cells is < 2 µM; in the experiment with DU145 cells it was > 10 µM.
Consider `CC1(C)C(=O)N(c2ccc([N+](=O)[O-])c(C(F)(F)F)c2)C(=O)N1CCOCCOCC[S+]([O-])CCCC(F)(F)C(F)(F)F` (stereo not drawn) [Example 37, 5,5-dimethyl-3-[4-nitro-3-(trifluoromethyl)phenyl]-1-[2-(2-{2-[(4,4,5,5,5-pentafluoropentyl)sulphinyl]ethoxy}ethoxy)ethyl]imidazolidine-2,4-dione], for which the IC50 is < 2 µM with LNCaP cells and > 10 µM in the experiment with DU145 cells.
In the case of `O=C1N(c2ccc([N+](=O)[O-])c(C(F)(F)F)c2)C(=O)C2(CCC2)N1CCCCCCCCC[S+]([O-])CCCC(F)(F)C(F)(F)F` (stereo not drawn) [Example 34, 7-[4-nitro-3-(trifluoromethyl)phenyl]-5-{9-[(4,4,5,5,5-pentafluoropentyl)sulphinyl]nonyl}-5,7-diazaspiro[3.4]octane-6,8-dione], the IC50 with LNCaP cells was < 2 µM; in the experiment with DU145 cells, > 10 µM.
